Test results published in PubChem BioAssay AID260 (DTP/NCI, 2004).
Several values for one entry are separate records, joined by “and”; a condition that tells them apart may be missing. Equal values may be shown once. Toxic doses and inconclusive results are not listed.

Test system: CD2F1 mice, intracerebral L1210 leukemia, survival T/C
Assay: NCI In Vivo Anticancer Drug Screen. Data for tumor model L1210 Leukemia (intracerebral) in CD2F1 (CDF1) mice
Settings: higher = longer survival
Method: The antitumor activity of compounds was measured in mice bearing transplantable tumors. Survival or tumor size were measured and the results are expressed as the measurement made in the treated group (T) divided by the measurement made in the vehicle treated control group (C). The tumor model used in this assay is L1210 Leukemia (intracerebral) in CD2F1 (CDF1) mice

[1] = endpoint: median survival time, dose: 16.0 mg/kg/injection, schedule: Q01DX005 (ip), vehicle: saline with Tween-80
[2] = endpoint: median survival time, dose: 128.0 mg/kg/injection, schedule: Q01DX005 (ip), vehicle: saline with Tween-80

`C#CCN(C)/N=N/c1nc[nH]c1C(N)=O` was tested, and the T/C [1] was 118 % of control, the T/C (endpoint: median survival time, dose: 64.0 mg/kg/injection, schedule: Q01DX005 (ip), vehicle: saline with Tween-80) was 124 % of control and the T/C [2] was 120 % of control.

With `C[C@H](CN1CC(=O)NC(=O)C1)N1CC(=O)NC(=O)C1` the T/C (endpoint: mean survival time, dose: 64.0 mg/kg/injection, schedule: Q01DX009 (ip), vehicle: water) was 159 % of control, the T/C (endpoint: mean survival time, dose: 128.0 mg/kg/injection, schedule: Q01DX009 (ip), vehicle: water) was 109 % of control and the T/C (endpoint: mean survival time, dose: 256.0 mg/kg/injection, schedule: Q01DX009 (ip), vehicle: water) was 90 % of control.

For `N=[N+]=CC(=O)CCC(NC(=O)C(CCC(=O)C=[N+]=N)NC(=O)CCC(N)C(=O)O)C(=O)O` (stereo unspecified), the T/C (endpoint: median survival time, dose: 0.05 mg/kg/injection, schedule: Q01DX005 (ip), vehicle: Klucel (hydroxypropylcellulose) (HPC)) was 95 % of control and 100 % of control, the T/C (endpoint: median survival time, dose: 0.1 mg/kg/injection, schedule: Q01DX005 (ip), vehicle: Klucel (hydroxypropylcellulose) (HPC)) was 93 % of control and 100 % of control and the T/C (endpoint: median survival time, dose: 0.2 mg/kg/injection, schedule: Q01DX005 (ip), vehicle: Klucel (hydroxypropylcellulose) (HPC)) was 96 % of control and 102 % of control. For the same compound, the T/C (endpoint: median survival time, dose: 0.4 mg/kg/injection, schedule: Q01DX005 (ip), vehicle: Klucel (hydroxypropylcellulose) (HPC)) was 94 % of control and 100 % of control.

With `CN(C)N=Nc1ccc(C(N)=O)cc1` the T/C (endpoint: median survival time, dose: 8.0 mg/kg/injection, schedule: Q01DX005 (ip), vehicle: saline with Tween-80) was 104 % of control, the T/C [1] was 113 % of control and the T/C (endpoint: median survival time, dose: 32.0 mg/kg/injection, schedule: Q01DX005 (ip), vehicle: saline with Tween-80) was 121 % of control. For the same compound, the T/C [2] was 106 % of control.

For `CN(Cc1cnc2nc(N[Si](C)(C)C)nc(N[Si](C)(C)C)c2n1)c1ccc(C(=O)NC(CCC(=O)O[Si](C)(C)C)C(=O)O[Si](C)(C)C)cc1` (stereo unspecified), the T/C (endpoint: median survival time, dose: 1.9 mg/kg/injection, schedule: Q04DX003 (ip), vehicle: saline) was 107 % of control, the T/C (endpoint: median survival time, dose: 3.8 mg/kg/injection, schedule: Q04DX003 (ip), vehicle: saline) was 121 % of control and the T/C (endpoint: median survival time, dose: 30.0 mg/kg/injection, schedule: Q04DX003 (ip), vehicle: saline) was 150 % of control. The T/C (endpoint: median survival time, dose: 60.0 mg/kg/injection, schedule: Q04DX003 (ip), vehicle: saline) was 157 % of control.

For `O=P1(N(CCCl)CCCl)NCCCO1` (stereo unspecified), the T/C (endpoint: median survival time, dose: 40.0 mg/kg/injection, schedule: Q01DX001 (ip), vehicle: saline) was 100 % of control, the T/C (endpoint: median survival time, dose: 80.0 mg/kg/injection, schedule: Q01DX001 (ip), vehicle: saline) was 104 % of control and the T/C (endpoint: median survival time, dose: 160.0 mg/kg/injection, schedule: Q01DX001 (ip), vehicle: saline) was 112 % of control. For the same compound, the T/C (endpoint: median survival time, dose: 320.0 mg/kg/injection, schedule: Q01DX001 (ip), vehicle: saline) was 105 % of control.

In the case of `C[C@]1(O)CC[C@H]2[C@@H]3CCC4=CC(=O)CC[C@]4(C)[C@@]3(F)[C@@H](O)C[C@@]21C`, the T/C (endpoint: median survival time, dose: 8.0 mg/kg/injection, schedule: Q01DX009 (ip), vehicle: saline with Tween-80) is reported as 112 % of control, the T/C (endpoint: median survival time, dose: 16.0 mg/kg/injection, schedule: Q01DX009 (ip), vehicle: saline with Tween-80) is reported as 112 % of control and the T/C (endpoint: median survival time, dose: 32.0 mg/kg/injection, schedule: Q01DX009 (ip), vehicle: saline with Tween-80) is reported as 104 % of control. The T/C (endpoint: median survival time, dose: 64.0 mg/kg/injection, schedule: Q01DX009 (ip), vehicle: saline with Tween-80) was 104 % of control, the T/C (endpoint: median survival time, dose: 128.0 mg/kg/injection, schedule: Q01DX009 (ip), vehicle: saline with Tween-80) was 122 % of control and the T/C (endpoint: median survival time, dose: 256.0 mg/kg/injection, schedule: Q01DX009 (ip), vehicle: saline with Tween-80) was 104 % of control. For the same compound, the T/C (endpoint: median survival time, dose: 512.0 mg/kg/injection, schedule: Q01DX009 (ip), vehicle: saline with Tween-80) was 96 % of control.

`COc1cc([C@@H]2c3cc4c(cc3[C@@H](OC3OC5COC(C)OC5C(O)C3O)[C@H]3COC(=O)[C@H]23)OCO4)cc(OC)c1O` (stereo partly specified) was tested, and the T/C (endpoint: median survival time, dose: 0.5 mg/kg/injection, schedule: Q01DX009 (ip), vehicle: saline) was 103 % of control, the T/C (endpoint: median survival time, dose: 1.0 mg/kg/injection, schedule: Q01DX009 (ip), vehicle: saline) was 101 % of control and the T/C (endpoint: median survival time, dose: 2.0 mg/kg/injection, schedule: Q01DX009 (ip), vehicle: saline) was 94 % of control. The T/C (endpoint: median survival time, dose: 4.0 mg/kg/injection, schedule: Q01DX009 (ip), vehicle: saline) was 91 % of control and the T/C (endpoint: median survival time, dose: 8.0 mg/kg/injection, schedule: Q01DX009 (ip), vehicle: saline) was 102 % of control.

`N[C@H](C(=O)O)[C@@H]1CC(Cl)=NO1` was tested, and the T/C (endpoint: mean survival time, dose: 16.0 mg/kg/injection, schedule: Q01DX009 (ip), vehicle: saline) was 124 % of control and the T/C (endpoint: mean survival time, dose: 32.0 mg/kg/injection, schedule: Q01DX009 (ip), vehicle: saline) was 101 % of control.

With `CC1C[C@@H](O)C(NC(=O)N(CCCl)N=O)[C@@H](O)C1` (stereo partly specified) the T/C (endpoint: mean survival time, dose: 6.0 mg/kg/injection, schedule: Q01DX001 (ip), vehicle: saline) was 123 % of control, the T/C (endpoint: mean survival time, dose: 13.0 mg/kg/injection, schedule: Q01DX001 (ip), vehicle: saline) was 154 % of control and the T/C (endpoint: mean survival time, dose: 20.0 mg/kg/injection, schedule: Q01DX001 (ip), vehicle: saline) was 332 % of control. For the same compound, the T/C (endpoint: mean survival time, dose: 30.0 mg/kg/injection, schedule: Q01DX001 (ip), vehicle: saline) was 186 % of control and the T/C (endpoint: mean survival time, dose: 45.0 mg/kg/injection, schedule: Q01DX001 (ip), vehicle: saline) was 157 % of control.
